Measurements reported in the supplement of paper PMC10733146.

Experiments:
Assay in all cases: viability relative to DMSO control (fraction); higher = less drug effect (more viable cells)
Settings in all cases: 48 h
[1] = tested on: primary AML patient cells (S002)
In short: (§1)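 The cells were primary mononuclear tumour cells, either fresh or cryopreserved, isolated by Ficoll from blood or bone marrow or derived from processed lymph node. Each well of a 384-well plate received 4 × 10^4 cells onto compounds pre-plated at five concentrations, with one well per concentration. The medium was RPMI-1640 with penicillin/streptomycin, L-glutamine and human serum, and plates stood at 37 °C and 5% CO2 for 48 h. Viability is reported as CellTiter-Glo luminescence relative to the median of 16 inner DMSO wells.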

[2] = tested on: primary AML patient cells (S009)
In short: as §1

[3] = tested on: primary AML patient cells (S019)
In short: as §1

[4] = tested on: primary AML patient cells (S025)
In short: as §1

[5] = tested on: primary AML patient cells (S037)
In short: as §1

[6] = tested on: primary AML patient cells (S055)
In short: as §1

[7] = tested on: primary AML patient cells (S071)
In short: as §1

[8] = tested on: primary AML patient cells (S072)
In short: as §1

[9] = tested on: primary AML patient cells (S079)
In short: as §1

[10] = tested on: primary AML patient cells (S089)
In short: as §1

[11] = tested on: primary AML patient cells (S091)
In short: as §1

[12] = tested on: primary DLBCL patient cells (S049)
In short: as §1

[13] = tested on: primary DLBCL patient cells (S076)
In short: as §1

[14] = tested on: primary DLBCL patient cells (S082)
In short: as §1

[15] = tested on: primary MCL patient cells (S041)
In short: as §1

[16] = tested on: primary T-NHL patient cells (S058)
In short: as §1

[17] = tested on: primary T-PLL patient cells (S008)
In short: as §1

[18] = tested on: primary AML patient cells (S007)
In short: as §1

CC(=O)Nc1cccc(-n2c(=O)n(C3CC3)c(=O)c3c(Nc4ccc(I)cc4F)n(C)c(=O)c(C)c32)c1 [Trametinib]
viability ([1]; 0.0008 µM): 0.398
viability ([1]; 0.004 µM): 0.432
viability ([1]; 0.02 µM): 0.364
viability ([1]; 0.1 µM): 0.437
viability ([1]; 0.5 µM): 0.402
viability ([2]; 0.0008 µM): 1.09
viability ([2]; 0.004 µM): 1.17
viability ([2]; 0.02 µM): 1.24
viability ([2]; 0.1 µM): 1.24
viability ([2]; 0.5 µM): 1.04
viability ([3]; 0.0008 µM): 0.948
viability ([3]; 0.004 µM): 0.944
viability ([3]; 0.02 µM): 0.878
viability ([3]; 0.1 µM): 0.919
viability ([3]; 0.5 µM): 0.912
viability ([4]; 0.0008 µM): 0.74
viability ([4]; 0.004 µM): 0.618
viability ([4]; 0.02 µM): 0.644
viability ([4]; 0.1 µM): 0.561
viability ([4]; 0.5 µM): 0.554
viability ([5]; 0.0008 µM): 0.957
viability ([5]; 0.004 µM): 0.969
viability ([5]; 0.02 µM): 0.921
viability ([5]; 0.1 µM): 0.899
viability ([5]; 0.5 µM): 0.915
viability ([6]; 0.0008 µM): 0.797
viability ([6]; 0.004 µM): 0.582
viability ([6]; 0.02 µM): 0.585
viability ([6]; 0.1 µM): 0.559
viability ([6]; 0.5 µM): 0.558
viability ([7]; 0.0008 µM): 0.8
viability ([7]; 0.004 µM): 0.789
viability ([7]; 0.02 µM): 0.757
viability ([7]; 0.1 µM): 0.744
viability ([7]; 0.5 µM): 0.708
viability ([8]; 0.0008 µM): 0.907
viability ([8]; 0.004 µM): 0.859
viability ([8]; 0.02 µM): 0.751
viability ([8]; 0.1 µM): 0.732
viability ([8]; 0.5 µM): 0.69
viability ([9]; 0.0008 µM): 0.703
viability ([9]; 0.004 µM): 0.655
viability ([9]; 0.02 µM): 0.556
viability ([9]; 0.1 µM): 0.538
viability ([9]; 0.5 µM): 0.504
viability ([10]; 0.0008 µM): 0.635
viability ([10]; 0.004 µM): 0.57
viability ([10]; 0.02 µM): 0.558
viability ([10]; 0.1 µM): 0.529
viability ([10]; 0.5 µM): 0.539
viability ([11]; 0.0008 µM): 0.438
viability ([11]; 0.004 µM): 0.308
viability ([11]; 0.02 µM): 0.288
viability ([11]; 0.1 µM): 0.299
viability ([11]; 0.5 µM): 0.272
viability ([12]; 0.0008 µM): 0.769
viability ([12]; 0.004 µM): 0.834
viability ([12]; 0.02 µM): 0.705
viability ([12]; 0.1 µM): 0.729
viability ([12]; 0.5 µM): 0.658
viability ([13]; 0.0008 µM): 0.752
viability ([13]; 0.004 µM): 0.789
viability ([13]; 0.02 µM): 0.63
viability ([13]; 0.1 µM): 0.706
viability ([13]; 0.5 µM): 0.648
viability ([14]; 0.0008 µM): 0.835
viability ([14]; 0.004 µM): 0.828
viability ([14]; 0.02 µM): 0.727
viability ([14]; 0.1 µM): 0.702
viability ([14]; 0.5 µM): 0.651
viability ([15]; 0.0008 µM): 0.989
viability ([15]; 0.004 µM): 1.04
viability ([15]; 0.02 µM): 1.03
viability ([15]; 0.1 µM): 1.01
viability ([15]; 0.5 µM): 1.02
viability ([16]; 0.0008 µM): 0.918
viability ([16]; 0.004 µM): 0.98
viability ([16]; 0.02 µM): 0.969
viability ([16]; 0.1 µM): 0.967
viability ([16]; 0.5 µM): 0.934
viability ([17]; 0.0008 µM): 0.965
viability ([17]; 0.004 µM): 1.05
viability ([17]; 0.02 µM): 0.955
viability ([17]; 0.1 µM): 1.07
viability ([17]; 0.5 µM): 0.905

O=C(O)CSc1cc(NS(=O)(=O)c2ccc(Br)cc2)c2ccccc2c1O [UMI-77]
viability ([1]; 0.024 µM): 0.893
viability ([1]; 0.12 µM): 0.926
viability ([1]; 0.6 µM): 0.948
viability ([1]; 3 µM): 0.937
viability ([1]; 15 µM): 1.03
viability ([18]; 0.024 µM): 0.894
viability ([18]; 0.12 µM): 0.94
viability ([18]; 0.6 µM): 0.853
viability ([18]; 3 µM): 0.973
viability ([18]; 15 µM): 0.891
viability ([2]; 0.024 µM): 0.914
viability ([2]; 0.12 µM): 0.914
viability ([2]; 0.6 µM): 0.802
viability ([2]; 3 µM): 0.571
viability ([2]; 15 µM): 0.0548
viability ([3]; 0.024 µM): 1.28
viability ([3]; 0.12 µM): 1.35
viability ([3]; 0.6 µM): 1.17
viability ([3]; 3 µM): 1.24
viability ([3]; 15 µM): 0.831
viability ([4]; 0.024 µM): 1.06
viability ([4]; 0.12 µM): 1.08
viability ([4]; 0.6 µM): 1.03
viability ([4]; 3 µM): 1.18
viability ([4]; 15 µM): 0.46
viability ([5]; 0.024 µM): 1.05
viability ([5]; 0.12 µM): 1.04
viability ([5]; 0.6 µM): 0.985
viability ([5]; 3 µM): 0.978
viability ([5]; 15 µM): 0.633
viability ([7]; 0.024 µM): 0.883
viability ([7]; 0.12 µM): 0.921
viability ([7]; 0.6 µM): 0.879
viability ([7]; 3 µM): 0.85
viability ([7]; 15 µM): 0.644
viability ([8]; 0.024 µM): 0.956
viability ([8]; 0.12 µM): 0.949
viability ([8]; 0.6 µM): 0.94
viability ([8]; 3 µM): 0.994
viability ([8]; 15 µM): 0.777
viability ([9]; 0.024 µM): 0.917
viability ([9]; 0.12 µM): 0.932
viability ([9]; 0.6 µM): 0.997
viability ([9]; 3 µM): 0.989
viability ([9]; 15 µM): 0.79
viability ([10]; 0.024 µM): 0.835
viability ([10]; 0.12 µM): 0.672
viability ([10]; 0.6 µM): 0.737
viability ([10]; 3 µM): 1.03
viability ([10]; 15 µM): 0.998
viability ([11]; 0.024 µM): 1.02
viability ([11]; 0.12 µM): 1.03
viability ([11]; 0.6 µM): 1.13
viability ([11]; 3 µM): 1.32
viability ([11]; 15 µM): 0.996
viability ([14]; 0.024 µM): 0.995
viability ([14]; 0.12 µM): 1.02
viability ([14]; 0.6 µM): 0.846
viability ([14]; 3 µM): 0.908
viability ([14]; 15 µM): 0.595
viability ([15]; 0.024 µM): 0.968
viability ([15]; 0.12 µM): 0.986
viability ([15]; 0.6 µM): 0.955
viability ([15]; 3 µM): 0.929
viability ([15]; 15 µM): 0.331
viability ([17]; 0.024 µM): 0.976
viability ([17]; 0.12 µM): 0.968
viability ([17]; 0.6 µM): 0.91
viability ([17]; 3 µM): 0.948
viability ([17]; 15 µM): 0.815

CS(=O)(=O)c1ccc(C(=O)Nc2ccc(Cl)c(-c3ccccn3)c2)c(Cl)c1 [Vismodegib]
viability ([1]; 0.024 µM): 0.854
viability ([1]; 0.12 µM): 0.923
viability ([1]; 0.6 µM): 0.862
viability ([1]; 3 µM): 0.957
viability ([1]; 15 µM): 0.87
viability ([2]; 0.024 µM): 0.913
viability ([2]; 0.12 µM): 0.918
viability ([2]; 0.6 µM): 0.944
viability ([2]; 3 µM): 0.942
viability ([2]; 15 µM): 0.939
viability ([3]; 0.024 µM): 0.903
viability ([3]; 0.12 µM): 0.997
viability ([3]; 0.6 µM): 0.855
viability ([3]; 3 µM): 0.873
viability ([3]; 15 µM): 0.989
viability ([4]; 0.024 µM): 0.963
viability ([4]; 0.12 µM): 0.984
viability ([4]; 0.6 µM): 0.955
viability ([4]; 3 µM): 0.89
viability ([4]; 15 µM): 0.902
viability ([5]; 0.024 µM): 0.927
viability ([5]; 0.12 µM): 0.979
viability ([5]; 0.6 µM): 0.91
viability ([5]; 3 µM): 0.958
viability ([5]; 15 µM): 1.02
viability ([6]; 0.024 µM): 0.914
viability ([6]; 0.12 µM): 0.927
viability ([6]; 0.6 µM): 0.931
viability ([6]; 3 µM): 0.925
viability ([6]; 15 µM): 0.964
viability ([7]; 0.024 µM): 0.865
viability ([7]; 0.12 µM): 0.899
viability ([7]; 0.6 µM): 0.879
viability ([7]; 3 µM): 0.906
viability ([7]; 15 µM): 0.891
viability ([8]; 0.024 µM): 0.969
viability ([8]; 0.12 µM): 0.954
viability ([8]; 0.6 µM): 0.903
viability ([8]; 3 µM): 0.902
viability ([8]; 15 µM): 0.927
viability ([9]; 0.024 µM): 0.897
viability ([9]; 0.12 µM): 0.894
viability ([9]; 0.6 µM): 0.899
viability ([9]; 3 µM): 0.871
viability ([9]; 15 µM): 0.818
viability ([10]; 0.024 µM): 0.87
viability ([10]; 0.12 µM): 0.881
viability ([10]; 0.6 µM): 0.93
viability ([10]; 3 µM): 0.98
viability ([10]; 15 µM): 0.642
viability ([11]; 0.024 µM): 0.973
viability ([11]; 0.12 µM): 0.901
viability ([11]; 0.6 µM): 0.997
viability ([11]; 3 µM): 0.996
viability ([11]; 15 µM): 0.893
viability ([12]; 0.024 µM): 0.909
viability ([12]; 0.12 µM): 0.939
viability ([12]; 0.6 µM): 0.887
viability ([12]; 3 µM): 0.878
viability ([12]; 15 µM): 0.887
viability ([13]; 0.024 µM): 1.01
viability ([13]; 0.12 µM): 1.07
viability ([13]; 0.6 µM): 1.07
viability ([13]; 3 µM): 1.05
viability ([13]; 15 µM): 1.01
viability ([14]; 0.024 µM): 0.89
viability ([14]; 0.12 µM): 0.939
viability ([14]; 0.6 µM): 0.915
viability ([14]; 3 µM): 0.933
viability ([14]; 15 µM): 1.07
viability ([15]; 0.024 µM): 0.934
viability ([15]; 0.12 µM): 0.973
viability ([15]; 0.6 µM): 0.935
viability ([15]; 3 µM): 0.969
viability ([15]; 15 µM): 0.984
viability ([16]; 0.024 µM): 0.913
viability ([16]; 0.12 µM): 0.978
viability ([16]; 0.6 µM): 0.953
viability ([16]; 3 µM): 0.926
viability ([16]; 15 µM): 1.01
viability ([17]; 0.024 µM): 0.941
viability ([17]; 0.12 µM): 0.932
viability ([17]; 0.6 µM): 0.983
viability ([17]; 3 µM): 0.938
viability ([17]; 15 µM): 0.926
